# Measured values as given in patent publication US11452717B2, “Small molecule activators of nicotinamide phosphoribosyltransferase (NAMPT) and uses thereof” (Sanford Burnham Prebys Medical Discovery Institute, priority 2017, dated 2022).
# Molecular target: NAMPT enzyme (Homo sapiens (Human), UniProt P43490)
# Assay: Enzyme Assay and NMN Detection (NAMPT reaction, fluorescence detection of NMN)
# Type: biochemical
# Conditions: Table B-1; NAMPT activation, NMN formation
# In short: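 Reaction in 50 mM HEPES pH 7.5, 5 mM MgCl2, 0.1% Prionex, 0.005% Tween 20, 1 mM TCEP at room temperature, with 16 nM NAMPT, 120 uM ATP, 5 uM nicotinamide, 6.25 uM PRPP, 0.04 U/ml pyrophosphatase for 2 h. Stopped with acetophenone/KOH then formic acid; NMN quantified by fluorescence (ex380/em460) against calibration curve.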
# Chain of NAMPT enzyme (P43490 whole entry, species assumed): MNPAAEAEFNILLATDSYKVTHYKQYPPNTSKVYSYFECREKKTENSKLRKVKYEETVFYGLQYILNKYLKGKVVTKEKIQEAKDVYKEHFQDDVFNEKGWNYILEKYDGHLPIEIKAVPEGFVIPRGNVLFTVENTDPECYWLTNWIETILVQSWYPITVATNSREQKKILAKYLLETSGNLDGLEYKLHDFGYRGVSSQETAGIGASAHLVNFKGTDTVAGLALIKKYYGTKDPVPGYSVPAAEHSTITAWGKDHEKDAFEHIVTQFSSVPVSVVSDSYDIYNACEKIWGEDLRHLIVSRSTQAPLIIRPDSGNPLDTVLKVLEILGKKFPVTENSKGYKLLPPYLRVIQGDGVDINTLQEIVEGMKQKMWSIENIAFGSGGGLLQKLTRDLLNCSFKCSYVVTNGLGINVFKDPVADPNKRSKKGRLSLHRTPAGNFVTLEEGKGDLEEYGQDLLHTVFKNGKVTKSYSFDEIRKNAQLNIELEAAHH
row,EC50 [µM],SMILES
1,> 20,COc1ccc(Cn2cc(CNC(=O)Nc3ccc(NS(=O)(=O)c4ccccc4)cc3)cn2)cc1 [N-(4-{3-[1-(4-Methoxy-benzyl)-1H-pyrazol-4-ylmethyl]-ureido}-phenyl)-benzenesulfonamide]
2,0.1 to 2,O=C(NCc1cnco1)Nc1ccc(S(=O)(=O)NCc2ccccc2)cc1 [N-Benzyl-4-(3-oxazol-5-ylmethyl-ureido)-benzenesulfonamide]
3,0.1 to 2,O=C(NCc1cn[nH]c1)Nc1ccc(S(=O)(=O)NCc2ccccc2)cc1 [N-Benzyl-4-[3-(1H-pyrazol-4-ylmethyl)-ureido]-benzenesulfonamide]
4,< 0.1,CC(C)N(Cc1ccccc1)S(=O)(=O)c1ccc(NC(=O)NCc2cnco2)cc1 [N-Benzyl-N-isopropyl-4-(3-oxazol-5-ylmethyl-ureido)-benzenesulfonamide]
5,> 20,CC(C)N(Cc1ccccc1)S(=O)(=O)c1ccc(NC(=O)NCc2nccs2)cc1 [N-Benzyl-N-isopropyl-4-(3-thiazol-2-ylmethyl-ureido)-benzenesulfonamide]
6,< 0.1,CC(C)N(Cc1ccccc1)S(=O)(=O)c1ccc(NC(=O)NCc2cncs2)cc1 [N-Benzyl-N-isopropyl-4-(3-thiazol-5-ylmethyl-ureido)-benzenesulfonamide]
7,< 0.1,CC(C)N(Cc1ccccc1)S(=O)(=O)c1ccc(NC(=O)NCc2cn[nH]c2)cc1 [N-Benzyl-N-isopropyl-4-[3-(1H-pyrazol-4-ylmethyl)-ureido]-benzenesulfonamide]
8,0.1 to 2,O=C(NCc1cn[nH]c1)Nc1ccc(S(=O)(=O)NCC2CCC2)cc1 [N-Cyclobutylmethyl-4-[3-(1H-pyrazol-4-ylmethyl)-ureido]-benzenesulfonamide]

# Same assay, conditions: Table B-2; NAMPT activation, NMN formation
row,SMILES,EC50 [µM]
1,O=C(NCc1ccncc1)Nc1ccc(S(=O)(=O)NCc2ccc(Cl)cc2)cc1 [N-(4-chlorobenzyl)-4-(3-(pyridin-4-ylmethyl)ureido)benzenesulfonamide],0.1 to 2
2,O=C(NCc1ccncc1)Nc1ccc(C(=O)Nc2ccc(Cl)cc2)cc1 [N-(4-chlorophenyl)-4-(3-(pyridin-4-ylmethyl)ureido)benzamide],0.1 to 2
3,N#Cc1ccc(CNS(=O)(=O)c2ccc(NC(=O)NCc3ccncc3)cc2)cc1 [N-(4-cyanobenzyl)-4-(3-(pyridin-4-ylmethyl)ureido)benzenesulfonamide],0.1 to 2
4,N#Cc1ccc(NC(=O)c2ccc(NC(=O)NCc3ccncc3)cc2)cc1 [N-(4-cyanophenyl)-4-(3-(pyridin-4-ylmethyl)ureido)benzamide],0.1 to 2
5,CCOc1ccc(NC(=O)c2ccc(NC(=O)NCc3ccncc3)cc2)cc1 [N-(4-ethoxyphenyl)-4-(3-(pyridin-4-ylmethyl)ureido)benzamide],0.1 to 2
6,O=C(NCc1ccncc1)Nc1ccc(C(=O)NCc2ccc(F)cc2)cc1 [N-(4-fluorobenzyl)-4-(3-(pyridin-4-ylmethyl)ureido)benzamide],> 20
7,O=C(NCc1ccncc1)Nc1ccc(S(=O)(=O)NCc2ccc(F)cc2)cc1 [N-(4-fluorobenzyl)-4-(3-(pyridin-4-ylmethyl)ureido)benzenesulfonamide],0.1 to 2
8,O=C(NCc1ccncc1)Nc1ccc(C(=O)NCCc2ccc(F)cc2)cc1 [N-(4-fluorophenethyl)-4-(3-(pyridin-4-ylmethyl)ureido)benzamide],0.1 to 2
9,O=C(NCc1ccncc1)Nc1ccc(C(=O)Nc2ccc(F)cc2)cc1 [N-(4-fluorophenyl)-4-(3-(pyridin-4-ylmethyl)ureido)benzamide],0.1 to 2
10,CC(C)Oc1ccc(NC(=O)c2ccc(NC(=O)NCc3ccncc3)cc2)cc1 [N-(4-isopropoxyphenyl)-4-(3-(pyridin-4-ylmethyl)ureido)benzamide],0.1 to 2
11,COc1ccc(NC(=O)c2ccc(NC(=O)NCc3ccncc3)cc2)cc1C [N-(4-methoxy-3-methylphenyl)-4-(3-(pyridin-4-ylmethyl)ureido)benzamide],0.1 to 2
12,COc1ccc(CNC(=O)c2ccc(NC(=O)NCc3ccncc3)cc2)cc1 [N-(4-methoxybenzyl)-4-(3-(pyridin-4-ylmethyl)ureido)benzamide],> 20
13,COc1ccc(CNS(=O)(=O)c2ccc(NC(=O)NCc3ccncc3)cc2)cc1 [N-(4-methoxybenzyl)-4-(3-(pyridin-4-ylmethyl)ureido)benzenesulfonamide],0.1 to 2
14,COc1ccc(NC(=O)c2ccc(NC(=O)NCc3ccncc3)cc2)cc1 [N-(4-methoxyphenyl)-4-(3-(pyridin-4-ylmethyl)ureido)benzamide],0.1 to 2
15,Cc1ccc(CNC(=O)c2ccc(NC(=O)NCc3ccncc3)cc2)cc1 [N-(4-methylbenzyl)-4-(3-(pyridin-4-ylmethyl)ureido)benzamide],> 20
16,Cc1ccc(CNS(=O)(=O)c2ccc(NC(=O)NCc3ccncc3)cc2)cc1 [N-(4-methylbenzyl)-4-(3-(pyridin-4-ylmethyl)ureido)benzenesulfonamide],0.1 to 2
17,Cc1ccc(CCNC(=O)c2ccc(NC(=O)NCc3ccncc3)cc2)cc1 [N-(4-methylphenethyl)-4-(3-(pyridin-4-ylmethyl)ureido)benzamide],0.1 to 2
18,Cc1cc(NS(=O)(=O)c2ccc(NC(=O)NCc3ccncc3)cc2)no1 [N-(5-Methyl-isoxazol-3-yl)-4-(3-pyridin-4-ylmethyl-ureido)-benzenesulfonamide],> 20
19,"O=C(NCc1ccncc1)Nc1ccc(C(=O)Nc2ccc3c(c2)OCO3)cc1 [N-(benzo[d][1,3]dioxol-5-yl)-4-(3-(pyridin-4-ylmethyl)ureido)benzamide]",5 to 20
20,O=C(NCc1ccncc1)Nc1cccc(S(=O)(=O)NCC2CCC2)c1 [N-(cyclobutylmethyl)-3-(3-(pyridin-4-ylmethyl)ureido)benzenesulfonamide],> 20

# More lines, now with the values ahead:
row,EC50 [µM],SMILES
1,5 to 20,O=C(NCc1ccncc1)Nc1ccc(C(=O)NCC2CCCC2)cc1 [N-(cyclopentylmethyl)-4-(3-(pyridin-4-ylmethyl)ureido)benzamide]
2,2 to 5,O=C(NCc1ccncc1)Nc1ccc(C(=O)NCC2CC2)cc1 [N-(cyclopropylmethyl)-4-(3-(pyridin-4-ylmethyl)ureido)benzamide]
3,5 to 20,O=C(NCc1ccncc1)Nc1ccc(C(=O)Nc2ccccn2)cc1 [N-(pyridin-2-yl)-4-(3-(pyridin-4-ylmethyl)ureido)benzamide]
4,> 20,O=C(NCc1ccncc1)Nc1ccc(C(=O)Nc2cccnc2)cc1 [N-(pyridin-3-yl)-4-(3-(pyridin-4-ylmethyl)ureido)benzamide]
5,> 20,O=C(NCc1ccncc1)Nc1ccc(C(=O)NCc2ccncc2)cc1 [N-(pyridin-4-ylmethyl)-4-(3-(pyridin-4-ylmethyl)ureido)benzamide]
6,0.1 to 2,CC(C)(C)NS(=O)(=O)c1ccc(NC(=O)NCc2ccncc2)cc1 [N-(tert-butyl)-4-(3-(pyridin-4-ylmethyl)ureido)benzenesulfonamide]
7,< 0.1,"O=C(NCc1ccncc1)Nc1ccc(S(=O)(=O)N(Cc2ccccc2)CC(F)(F)F)cc1 [N-Benzyl-4-(3-pyridin-4-ylmethyl-ureido)-N-(2,2,2-trifluoro-ethyl)-benzenesulfonamide]"
8,0.1 to 2,O=C(NCc1ccncc1)Nc1ccc(S(=O)(=O)NCc2ccccc2)cc1 [N-Benzyl-4-(3-pyridin-4-ylmethyl-ureido)-benzenesulfonamide]
9,< 0.1,O=C(NCc1ccncc1)Nc1ccc(S(=O)(=O)N(Cc2ccccc2)C2CC2)cc1 [N-Benzyl-N-cyclopropyl-4-(3-pyridin-4-ylmethyl-ureido)-benzenesulfonamide]
10,< 0.1,CCN(Cc1ccccc1)S(=O)(=O)c1ccc(NC(=O)NCc2ccncc2)cc1 [N-Benzyl-N-ethyl-4-(3-pyridin-4-ylmethyl-ureido)-benzenesulfonamide]
11,< 0.1,CC(C)N(Cc1ccccc1)S(=O)(=O)c1ccc(NC(=O)NCc2ccncc2)cc1 [N-Benzyl-N-isopropyl-4-(3-pyridin-4-ylmethyl-ureido)-benzenesulfonamide]
12,0.1 to 2,O=C(NCc1ccncc1)Nc1ccc(S(=O)(=O)N(Cc2ccccc2)c2ccccc2)cc1 [N-Benzyl-N-phenyl-4-(3-pyridin-4-ylmethyl-ureido)-benzenesulfonamide]
13,< 0.1,CCCN(Cc1ccccc1)S(=O)(=O)c1ccc(NC(=O)NCc2ccncc2)cc1 [N-Benzyl-N-propyl-4-(3-pyridin-4-ylmethyl-ureido)-benzenesulfonamide]
14,0.1 to 2,O=C(NCc1ccncc1)Nc1ccc(S(=O)(=O)NC2CCC2)cc1 [N-Cyclobutyl-4-(3-pyridin-4-ylmethyl-ureido)-benzenesulfonamide]
15,0.1 to 2,O=C(NCc1ccncc1)Nc1ccc(S(=O)(=O)NCC2CCC2)cc1 [N-Cyclobutylmethyl-4-(3-pyridin-4-ylmethyl-ureido)-benzenesulfonamide]
16,0.1 to 2,CN(CC1CCC1)S(=O)(=O)c1ccc(NC(=O)NCc2ccncc2)cc1 [N-Cyclobutylmethyl-N-methyl-4-(3-pyridin-4-ylmethyl-ureido)-benzenesulfonamide]
17,0.1 to 2,O=C(NCc1ccncc1)Nc1ccc(S(=O)(=O)NC2CCCCC2)cc1 [N-Cyclohexyl-4-(3-pyridin-4-ylmethyl-ureido)-benzenesulfonamide]
18,0.1 to 2,CN(C1CCCCC1)S(=O)(=O)c1ccc(NC(=O)NCc2ccncc2)cc1 [N-Cyclohexyl-N-methyl-4-(3-pyridin-4-ylmethyl-ureido)-benzenesulfonamide]
19,< 0.1,CC(C)CN(C1CCCC1)S(=O)(=O)c1ccc(NC(=O)NCc2ccncc2)cc1 [N-Cyclopentyl-N-isobutyl-4-(3-pyridin-4-ylmethyl-ureido)-benzenesulfonamide]
20,0.1 to 2,CN(C1CCCC1)S(=O)(=O)c1ccc(NC(=O)NCc2ccncc2)cc1 [N-Cyclopentyl-N-methyl-4-(3-pyridin-4-ylmethyl-ureido)-benzenesulfonamide]

# Same assay, conditions: Table B-3; NAMPT activation, NMN formation
row,EC50 [µM],SMILES
1,> 20,O=C(NCc1ccccc1)Nc1ccc(S(=O)(=O)NCc2ccccc2)cc1 [N-Benzyl-4-(3-benzyl-ureido)-benzenesulfonamide]
